Where a name gives a salt, the structure may show the parent alone. Read-outs that look alike come from different tables or passages of the source.
Legend:
[1] = biological target: T1, human neutrophil elastase (HNE) (Homo sapiens, UniProt P08246); experiment: Specificity assay, human neutrophil elastase; type: biochemical; settings: 2 hr pre-incubation, read-out: HLE
T1 construct: purchased Sigma
T1 sequence (P08246 30-267): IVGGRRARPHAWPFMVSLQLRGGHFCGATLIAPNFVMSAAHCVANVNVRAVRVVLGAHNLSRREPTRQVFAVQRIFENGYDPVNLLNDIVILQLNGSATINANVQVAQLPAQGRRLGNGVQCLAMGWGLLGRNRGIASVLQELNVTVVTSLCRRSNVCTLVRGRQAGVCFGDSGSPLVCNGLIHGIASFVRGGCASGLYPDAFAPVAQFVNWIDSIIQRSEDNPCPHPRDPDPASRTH
Method: (§1) The specificities of compounds of the present invention were determined against a variety of serine proteases: human neutrophil elastase (HNE), porcine pancreatic elastase (PPE) and human pancreatic chymotrypsin and one cysteine protease: human liver cathepsin B. In all cases a 96-well plate format protocol using colorimetric p-nitroaniline (pNA) substrate specific for each enzyme was used as described previously (U.S. Pat. No. 6,323,180) with some modifications to the serine protease assays. All enzymes were purchased from Sigma while the substrates were from Bachem.
(§2) Each assay included a 2 hr enzyme-inhibitor pre-incubation at RT followed by addition of substrate and hydrolysis to ˜30% conversion as measured on a Spectramax Pro microplate reader. Compound concentrations varied from 100 to 0.4 μM depending on their potency. […]
(§3) The percentage of inhibition was calculated using the formula: [1−((UVinh−UVblank)/(UVctl−UVblank))]×100 […]

human liver cathepsin B = biological target: T2, human liver cathepsin B (Homo sapiens, UniProt P07858); experiment: Specificity assay, cathepsin B; type: biochemical; settings: 2 hr pre-incubation
T2 construct: purchased Sigma; host or cells: human liver (as named)
Method: as §1, §2, §3

[2] = test system: human pancreatic chymotrypsin; experiment: Specificity assay, chymotrypsin; type: biochemical; settings: 2 hr pre-incubation
Method: as §1, §2, §3

[3] = test system: HCV replicon in Huh7 cells; experiment: HCV replicon cell-based assay (replicon FRET assay); parameters: species or system HCV strain 1B; settings: Hepatitis C virus, Huh-7, HCV replicon cell assay
How it was run: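 Huh7 cells carrying a genotype 1b subgenomic replicon (neo, NS3–NS5B) were treated with compound for 4 days at 37 °C in 0.5% DMSO final. Lysates with 10 μM RET S1 FRET peptide and 150 mM NaCl were read kinetically at 340/490 nm over 21 cycles. EC50 was derived as for the enzyme IC50.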

[4] = biological target: T3, porcine pancreatic elastase (PPE) (Sus scrofa, UniProt P00772); experiment: Specificity assay, porcine pancreatic elastase; type: biochemical; settings: 2 hr pre-incubation
T3 construct: purchased Sigma
T3 sequence (P00772 27-266): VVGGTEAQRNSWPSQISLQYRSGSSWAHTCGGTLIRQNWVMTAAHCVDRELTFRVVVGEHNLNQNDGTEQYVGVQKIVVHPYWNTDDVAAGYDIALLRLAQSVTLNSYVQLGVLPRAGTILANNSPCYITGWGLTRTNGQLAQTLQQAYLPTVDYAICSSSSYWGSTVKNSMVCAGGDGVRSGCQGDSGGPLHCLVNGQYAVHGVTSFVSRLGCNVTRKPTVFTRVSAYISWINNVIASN
Method: as §1, §2, §3

COc1ccc2c(O[C@@H]3C[C@H]4C(=O)N[C@]5(C(=O)NS(=O)(=O)C6CC6)CC5/C=C/CCCC[C@H](N)C(=O)N4C3)cc(-c3ccccc3)nc2c1 (stereo partly drawn) [Compound 6, (1S,4R,6S,13S,17R)-7-trans-Cyclopropanesulfonic acid [13-amino-17-(7-methoxy-2-phenylquinolin-4-yloxy)-2,14-dioxo-3,15-diazatricyclo[13.3.0.0^4,6]octadec-7-ene-4-carbonyl]amide dihydrochloride]
IC50 [1]: 30 µM | IC50 (human liver cathepsin B): > 100 µM | IC50 [2]: > 100 µM | EC50 ([3]; EC50 ranges): < 0.5 µM | EC50 ([3]; read-out: EC50): ~0.124 µM | IC50 [4]: > 100 µM
